For one series, the target named is PPARα (Homo sapiens (Human), UniProt Q07869). The experiment in a line: Nuclear receptor reporter gene (luciferase) screening model, PPARα activation in HepG2 cells. It is filed as cell-based. The note with it: for Experiment results (relative activation fold) PPARα: HepG2, solvent control = 1; for EC50: HepG2 reporter gene, 6 concentrations. The source says: (§1) Using a reporter gene method, a screening model for screening a nuclear receptor agonist in living cells is designed on the basis of the principal that a nuclear receptor can activate transcription of its downstream gene after being activated. A reporter gene plasmid is constructed, in which the DNA binding sequence for the nuclear receptor (NRE) is inserted at the upstream of a luciferase gene, such that the expression of the luciferase gene is regulated by the nuclear receptor. The reporter gene plasmid is transferred into a cell simultaneously with the nuclear receptor. The nuclear receptor will be activated when a nuclear receptor agonist presents in the cell culture medium. The receptor being activated can induce the expression of the luciferase gene, while the amount of generated luciferase can be determined with its luminescent substrate. In this way, the intensity of activation of the nuclear receptor by the compound can be determined by observing the luminescence intensity. For the calibration of the experimental error caused by factors such as transfection efficiency, amount of inoculated cells, toxicity of the compound, etc, a GFP plasmid is co-transfected simultaneously as the internal reference. In the analysis of the experimental results, the luminescent values tested for all wells are calibrated with GFP values. The experimental results are expressed as relative activation fold, with a value of 1 for the solvent control. The greater the fold is, the higher the activation capacity represents.
PPARα, sequence (Q07869 whole entry, species assumed): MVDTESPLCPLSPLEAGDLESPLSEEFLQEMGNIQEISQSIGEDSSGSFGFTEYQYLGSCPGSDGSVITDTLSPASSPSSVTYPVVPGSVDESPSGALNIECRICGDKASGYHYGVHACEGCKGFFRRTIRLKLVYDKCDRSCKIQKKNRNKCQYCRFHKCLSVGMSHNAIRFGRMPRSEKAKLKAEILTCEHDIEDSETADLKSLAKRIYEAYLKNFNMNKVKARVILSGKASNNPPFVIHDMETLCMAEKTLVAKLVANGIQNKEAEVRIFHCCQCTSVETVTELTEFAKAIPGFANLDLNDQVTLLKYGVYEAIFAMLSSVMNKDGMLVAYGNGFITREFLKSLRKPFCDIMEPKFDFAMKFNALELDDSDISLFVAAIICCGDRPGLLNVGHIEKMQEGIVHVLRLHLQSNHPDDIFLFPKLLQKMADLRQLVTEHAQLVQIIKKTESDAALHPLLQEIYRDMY
PPARα, sequence (P19793 whole entry partner, species assumed): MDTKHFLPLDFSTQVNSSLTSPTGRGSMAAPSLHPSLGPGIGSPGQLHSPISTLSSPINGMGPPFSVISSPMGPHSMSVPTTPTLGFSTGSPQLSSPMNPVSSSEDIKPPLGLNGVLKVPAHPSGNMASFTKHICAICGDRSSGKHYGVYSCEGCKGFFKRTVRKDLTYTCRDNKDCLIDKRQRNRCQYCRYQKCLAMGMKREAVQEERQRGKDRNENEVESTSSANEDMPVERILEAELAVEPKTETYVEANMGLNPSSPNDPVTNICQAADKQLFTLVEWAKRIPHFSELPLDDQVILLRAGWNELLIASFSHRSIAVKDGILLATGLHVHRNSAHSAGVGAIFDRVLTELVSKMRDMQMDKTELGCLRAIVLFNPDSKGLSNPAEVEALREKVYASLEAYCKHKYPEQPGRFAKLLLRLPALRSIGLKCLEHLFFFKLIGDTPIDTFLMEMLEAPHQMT
(§2) The detailed procedure is described as follows:
(§3) Hepatocarcinoma cell HepG2 (from ATCC, American Type Culture Collection) was cultured in a DMEM medium supplemented with 10% heat-inactivated fetal bovine serum (FBS, Invitogen, Grand Island, N.Y., USA) in a T-75 culture flask (Greiner, Germany) placed in a 5% CO2 incubator at 37° C. and 100% relative humidity.
(§4) On the next day, when the cells in the 96-well culture plate grew up to 50-80% confluency, cell transfection was performed. The cell co-transfection system comprised FuGene6 transfection agent (Roche Molecular Biochemicals, Indianapolis, Ind., U.S.A.) and 60 ng DNA (10 ng hRXR, 10 ng pCMV βGal, 10 ng nuclear receptor expression plasmid RXR/PPARα, δ, γ, 30 ng GFP fluorescence reporter gene plasmid, respectively).
(§5) The cell culture medium was discarded immediately after 24 hours of transfection and replaced by 200 μl fresh DMEM medium containing the test medicament (with 10% FBS treated by activated carbon). The final concentration gradients of the test medicament were 10 μM, 5 μM, 1 μM, 0.1 μM, 0.01 μM, 0.001 μM, and 0 μM. 0.05 μM 2-bromostearic acid (purchased from Sigma, USA) was used as the positive control. The final concentration of DMSO in each well was 0.1%.
(§6) After 24 h treatment with the medicament, the cells were lysed with a lysis solution (Cell Culture Lysis buffer, Promega) and centrifuged, and the supernatant was collected. The supernatant was reacted with a fluorescence assay kit (Promega) and counted by a fluorometer (Ascent Fluoroskan FL reader, Thermo Labsystems, Finland), and the relative intensity of luciferase was determined. For the assay of the β-galactosidase activity used in the experiment as the internal reference (the internal reference for calibrating the transfection efficiency), 50 μl of the supernatant was transferred into a fresh microplate, treated with a Promega kit, and the value was read with a microplate reader at a wavelength of 405 nm (Bio-tech Instruments Inc., Winooski, Vt., USA) (Sauerberg, P.; Olsen, G. S.; Jeppesen, L.; Mogensen, J. P. et al., J. Med. Chem., 2007, 50, 1495-1503).
(§7) In the present screening protocol, it was calculated according to the activation of the receptor by the sample at 6 different concentrations.
(§8) The concentration-activity profile of the effects of a compound was fitted by carrying out iterative computation according to the following formula, and corresponding EC50 was calculated: […]
In general terms: Reporter assays use an easily measured gene product as a stand-in for the process of interest.

The target of the next series is PPARγ (Homo sapiens (Human), UniProt P37231). The experiment in a line: Nuclear receptor reporter gene (luciferase) screening model, PPARγ activation in HepG2 cells. It is filed as cell-based. The note with it: for Experiment results (relative activation fold) PPARγ: HepG2, solvent control = 1; for EC50: HepG2 reporter gene, 6 concentrations.
PPARγ, sequence (P37231 whole entry, species assumed): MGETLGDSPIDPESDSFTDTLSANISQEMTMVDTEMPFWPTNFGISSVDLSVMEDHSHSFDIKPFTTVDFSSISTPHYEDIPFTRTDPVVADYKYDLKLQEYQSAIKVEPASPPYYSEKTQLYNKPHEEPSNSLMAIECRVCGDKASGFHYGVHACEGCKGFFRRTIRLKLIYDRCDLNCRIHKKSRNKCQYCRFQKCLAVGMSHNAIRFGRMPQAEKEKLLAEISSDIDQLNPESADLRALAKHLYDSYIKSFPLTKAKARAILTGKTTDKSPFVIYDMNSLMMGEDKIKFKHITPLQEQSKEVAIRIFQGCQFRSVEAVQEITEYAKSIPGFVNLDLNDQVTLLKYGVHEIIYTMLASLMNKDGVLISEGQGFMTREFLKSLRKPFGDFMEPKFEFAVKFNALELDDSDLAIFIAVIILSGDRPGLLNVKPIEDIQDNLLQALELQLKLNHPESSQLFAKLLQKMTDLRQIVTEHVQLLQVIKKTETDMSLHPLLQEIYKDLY
PPARγ, sequence (P19793 whole entry partner, species assumed): as the sequence (P19793 whole entry partner, species assumed) above
Text: as §1, §2, §3, §4, §5, §6, §7, §8

The next series addresses PPARδ (Homo sapiens (Human), UniProt Q03181). Kind of series: Nuclear receptor reporter gene (luciferase) screening model, PPARδ activation in HepG2 cells. It is filed as cell-based. The note with it: for Experiment results (relative activation fold) PPARδ: HepG2, solvent control = 1; for EC50: HepG2 reporter gene, 6 concentrations.
Text: as §1, §2, §3, §4, §5, §6, §7, §8

The nature of series [1]: Acute toxicity (LD50, autopsy). The format is in vivo. The note with it: orally. The source says: In the autopsy, no visible obvious injure was found in main visceral organs, and there was no statistical difference in the change in organ coefficient.

Each structure is given as a SMILES string.

PPARδ, sequence (Q03181 whole entry, species assumed): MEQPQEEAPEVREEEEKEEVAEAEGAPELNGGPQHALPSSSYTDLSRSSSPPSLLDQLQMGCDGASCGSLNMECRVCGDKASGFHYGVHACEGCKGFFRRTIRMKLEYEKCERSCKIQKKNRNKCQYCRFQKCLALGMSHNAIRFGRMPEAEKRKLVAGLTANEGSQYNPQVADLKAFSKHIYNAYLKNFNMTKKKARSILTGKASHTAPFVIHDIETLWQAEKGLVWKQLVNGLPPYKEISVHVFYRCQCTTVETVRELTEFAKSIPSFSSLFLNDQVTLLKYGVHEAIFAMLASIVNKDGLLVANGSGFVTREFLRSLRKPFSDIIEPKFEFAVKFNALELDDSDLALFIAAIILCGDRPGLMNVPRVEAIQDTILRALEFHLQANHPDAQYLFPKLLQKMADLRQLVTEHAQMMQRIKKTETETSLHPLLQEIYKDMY
PPARδ, sequence (P19793 whole entry partner, species assumed): as the sequence (P19793 whole entry partner, species assumed) above

`CCc1cc(OCCc2nc(-c3ccc(C)cc3)oc2C)ccc1CCC(=O)O` [Compound 5]: the “Experiment results (relative activation fold) PPARα” value on PPARα (0.001 uM) is given as 1.33 fold; at PPARα (0.01 uM), 1.45 fold; at PPARα (0.1 uM), 1.37 fold; on PPARα (1 uM), 1.58 fold; on PPARα (5 uM), 1.98 fold; at PPARα (10 uM), 1.91 fold. The EC50 (as a rule, the concentration giving half of the maximal effect) is 1180 nM on PPARα, 4 nM on PPARγ and 7 nM on PPARδ. The “activation effect on PPARα receptor (in words)” value at PPARα (screening results) is recorded as “better activation effects”. Besides, the “Experiment results (relative activation fold) PPARγ” value is on record as 1.98 fold on PPARγ (0.001 uM); 2.99 fold on PPARγ (0.01 uM); 3.75 fold on PPARγ (0.1 uM); 3.95 fold on PPARγ (1 uM); 3.82 fold on PPARγ (5 uM); 4.11 fold on PPARγ (10 uM). In addition, the “activation effect on PPARγ receptor (in words)” value on PPARγ (screening results) was “better activation effects”. Also, the “Experiment results (relative activation fold) PPARδ” value is listed as 1.57 fold on PPARδ (0.001 uM); 2.44 fold on PPARδ (0.01 uM); 3.61 fold on PPARδ (0.1 uM); 3.69 fold on PPARδ (1 uM); 3.57 fold on PPARδ (5 uM); 4.64 fold on PPARδ (10 uM). On PPARδ (screening results), the “activation effect on PPARδ receptor (in words)” value was “better activation effects”.

Consider `CCc1cc(OCCc2nc(-c3ccc(-c4nnn[nH]4)cc3)oc2C)ccc1CCC(=O)O` [Compound 6], for which the “Experiment results (relative activation fold) PPARα” value at PPARα (0.001 uM) is listed as 1.33 fold; at PPARα (0.01 uM), 1.23 fold; on PPARα (0.1 uM) it was 1.27 fold; on PPARα (1 uM), 1.53 fold; at PPARα (5 uM) it was 1.76 fold; on PPARα (10 uM) it was 1.96 fold. Further, the EC50 on PPARα was determined as 2630 nM; at PPARγ it was 6760 nM; on PPARδ it was 6760 nM. The “Experiment results (relative activation fold) PPARγ” value at PPARγ (0.001 uM) amounted to 0.92 fold; at PPARγ (0.01 uM), 1.02 fold; at PPARγ (0.1 uM) it was 1.04 fold; at PPARγ (1 uM), 1.74 fold; at PPARγ (5 uM) it was 1.63 fold; on PPARγ (10 uM), 2.53 fold. The “Experiment results (relative activation fold) PPARδ” value stood at 0.99 fold at PPARδ (0.001 uM); 0.87 fold on PPARδ (0.01 uM); 1.09 fold at PPARδ (0.1 uM); 1.11 fold on PPARδ (1 uM); 1.27 fold at PPARδ (5 uM); 1.63 fold on PPARδ (10 uM).

As for `CCc1cc(OCCc2nc(-c3ccc([N+](=O)[O-])cc3)oc2C)ccc1CCC(=O)O` [Compound 7], the “Experiment results (relative activation fold) PPARα” value stood at 1.15 fold at PPARα (0.001 uM); 1.32 fold at PPARα (0.01 uM); 1.42 fold at PPARα (0.1 uM); 1.55 fold at PPARα (1 uM); 1.66 fold on PPARα (5 uM); 1.94 fold at PPARα (10 uM). Besides, the results for the EC50 at PPARα, at PPARγ and on PPARδ were 2880 nM, 25 nM and 3 nM, respectively. Besides, the “Experiment results (relative activation fold) PPARγ” value at PPARγ (0.001 uM) turned out to be 1.29 fold; at PPARγ (0.01 uM), 1.86 fold; on PPARγ (0.1 uM), 3.30 fold; at PPARγ (1 uM) it was 3.80 fold; at PPARγ (5 uM), 4.08 fold; at PPARγ (10 uM), 4.35 fold. For the same compound, the “Experiment results (relative activation fold) PPARδ” value was 1.66 fold on PPARδ (0.001 uM); 2.72 fold at PPARδ (0.01 uM); 2.99 fold on PPARδ (0.1 uM); 3.70 fold on PPARδ (1 uM); 3.60 fold at PPARδ (5 uM); 3.38 fold at PPARδ (10 uM).

As for `CCc1cc(OCCc2nc(-c3ccc(C#N)cc3)oc2C)ccc1CCC(=O)O` [Compound 8], the “Experiment results (relative activation fold) PPARα” value on PPARα (0.001 uM) is 1.23 fold; at PPARα (0.01 uM) it was 1.35 fold; on PPARα (0.1 uM) it was 1.48 fold; on PPARα (1 uM), 1.41 fold; on PPARα (5 uM), 1.71 fold; at PPARα (10 uM) it was 1.93 fold. Moreover, the values for the EC50 at PPARα, at PPARγ and at PPARδ were 5250 nM, 22 nM and 6 nM, respectively. Besides, the “Experiment results (relative activation fold) PPARγ” value was determined as 1.38 fold at PPARγ (0.001 uM); 2.29 fold on PPARγ (0.01 uM); 3.72 fold on PPARγ (0.1 uM); 4.75 fold at PPARγ (1 uM); 4.29 fold at PPARγ (5 uM); 4.24 fold at PPARγ (10 uM). Besides, the “Experiment results (relative activation fold) PPARδ” value on PPARδ (0.001 uM) amounted to 1.65 fold; at PPARδ (0.01 uM), 2.69 fold; on PPARδ (0.1 uM), 3.58 fold; at PPARδ (1 uM), 3.94 fold; on PPARδ (5 uM), 4.23 fold; on PPARδ (10 uM), 4.40 fold.

`CCc1cc(OCCc2nc(-c3ccc(C(N)=O)cc3)oc2C)ccc1CCC(=O)O` [Compound 9]: the “Experiment results (relative activation fold) PPARα” value on PPARα (0.001 uM) is listed as 1.25 fold; at PPARα (0.01 uM), 1.17 fold; at PPARα (0.1 uM), 1.32 fold; at PPARα (1 uM), 1.56 fold; on PPARα (5 uM), 1.63 fold; at PPARα (10 uM), 1.81 fold. In addition, the EC50 at PPARα is 1150 nM; on PPARγ, 47 nM; at PPARδ it was 331 nM. Also, the “Experiment results (relative activation fold) PPARγ” value on PPARγ (0.001 uM) was 1.09 fold; on PPARγ (0.01 uM), 1.51 fold; on PPARγ (0.1 uM), 3.20 fold; at PPARγ (1 uM), 4.34 fold; on PPARγ (5 uM) it was 5.04 fold; on PPARγ (10 uM), 4.26 fold. In addition, the “Experiment results (relative activation fold) PPARδ” value on PPARδ (0.001 uM) came to 1.18 fold; on PPARδ (0.01 uM) it was 1.40 fold; on PPARδ (0.1 uM) it was 2.25 fold; on PPARδ (1 uM), 3.38 fold; at PPARδ (5 uM), 4.08 fold; on PPARδ (10 uM), 3.92 fold.

Regarding `CN(CCOc1ccc(CC2SC(=O)NC2=O)cc1)c1ccccn1` (stereo not shown) [rosiglitazone], in series [1], the LD50 (usually the dose at which mortality reaches 50%) lay within 3000 to 4000 mg/kg.
